# According to the supplement of paper PMC13380429:
# Assays:
# Conditions in all cases: 72 h
# [1] = tested on: HepG2; assay: drug sensitivity score (DSS) for viability; higher = more toxic; extreme values may be limits of the assay
# [2] = tested on: Caco-2; assay: as above
# [3] = tested on: U2OS; assay: as above
# [4] = tested on: Calu-3; assay: as above
# [5] = tested on: Vero E6; assay: as above
# [6] = tested on: HepG2; assay: cell viability relative to DMSO; higher = less toxic
# [7] = tested on: Caco-2; assay: as above
# [8] = tested on: U2OS; assay: as above
# [9] = tested on: Calu-3; assay: as above
# [10] = tested on: Vero E6; assay: as above
# [11] = tested on: HepG2; assay: relative viability EC50 (midpoint between 100% and the lowest measured viability); higher = less toxic
# [12] = tested on: Caco-2; assay: as above
# [13] = tested on: U2OS; assay: as above
# [14] = tested on: Calu-3; assay: as above
# [15] = tested on: Vero E6; assay: as above
Structure (SMILES),drug sensitivity score [1],drug sensitivity score [2],drug sensitivity score [3],drug sensitivity score [4],drug sensitivity score [5],cell viability ([6]; 1 nM),cell viability ([6]; 10 nM),cell viability ([6]; 100 nM),cell viability ([6]; 1000 nM),cell viability ([6]; 10000 nM),cell viability ([7]; 1 nM),cell viability ([7]; 10 nM),cell viability ([7]; 100 nM),cell viability ([7]; 1000 nM),cell viability ([7]; 10000 nM),cell viability ([8]; 1 nM),cell viability ([8]; 10 nM),cell viability ([8]; 100 nM),cell viability ([8]; 1000 nM),cell viability ([8]; 10000 nM),cell viability ([9]; 1 nM),cell viability ([9]; 10 nM),cell viability ([9]; 100 nM),cell viability ([9]; 1000 nM),cell viability ([9]; 10000 nM),cell viability ([10]; 1 nM),cell viability ([10]; 10 nM),cell viability ([10]; 100 nM),cell viability ([10]; 1000 nM),cell viability ([10]; 10000 nM),relative viability EC50 [11],relative viability EC50 [12],relative viability EC50 [13],relative viability EC50 [14],relative viability EC50 [15]
CN1CCN(c2ccc3ccccc3n2)CC1 [N-methylquipazine],0,0,0,0,0,99.4%,96.1%,98%,102%,111%,102%,91.4%,104%,97.3%,102%,101%,99.4%,102%,96.8%,98.9%,106%,96.2%,99.2%,96.4%,95.1%,97.7%,97.8%,95.7%,97.1%,111%,> 10 µM,> 10 µM,> 10 µM,> 10 µM,> 10 µM
CC(C)NCCN(C(C)C)S(=O)(=O)c1ccc(Cl)cc1Cl [RN-1734],0.4,0,0,0,0,99.8%,89.7%,102%,96.8%,85.9%,105%,95.1%,97.1%,94.6%,97.4%,99.3%,98.4%,101%,95.4%,94.7%,97.1%,101%,95.6%,99.8%,99.6%,97%,100%,94.2%,96.7%,91.2%,> 10 µM,> 10 µM,> 10 µM,> 10 µM,> 10 µM
Cc1ccc(O)c(N=Nc2ccccc2)n1 [SIB-1757],0,0.1,0,0,0,108%,110%,107%,108%,94.5%,92.4%,103%,98.6%,103%,86.2%,104%,107%,102%,103%,95.9%,99.8%,107%,111%,99.9%,92.8%,98.1%,94.6%,96.7%,99%,92.5%,> 10 µM,> 10 µM,> 10 µM,> 10 µM,> 10 µM
C=CCN1C[C@H](C)N([C@H](c2ccc(C(=O)N(CC)CC)cc2)c2cccc(OC)c2)C[C@H]1C [SNC-80],0,0,0,0,0,99.9%,84.6%,100%,106%,97.4%,92.1%,99.2%,101%,95.5%,93.7%,98.4%,103%,93.4%,99.4%,94.7%,93.4%,98.8%,101%,91.2%,104%,106%,97.7%,105%,102%,101%,> 10 µM,> 10 µM,> 10 µM,> 10 µM,> 10 µM
CC[C@H](/C=C/[C@@H](C)[C@H]1CC[C@H]2[C@@H]3CC=C4C[C@@H](O)CC[C@]4(C)[C@H]3CC[C@]12C)C(C)C [Stigmasterol (Stigmasterin)],0,0,0,0,0,103%,109%,92.9%,92.8%,105%,102%,107%,94.6%,93.5%,96.9%,105%,96.4%,100%,99.3%,99.4%,95%,103%,110%,102%,104%,99%,104%,99.4%,106%,102%,> 10 µM,> 10 µM,> 10 µM,> 10 µM,> 10 µM
Cc1ccc(-c2csc3ncnc(SCCC(=O)O)c23)cc1 [TTP-22],0,0,0,0,0,103%,92.3%,95.6%,100%,108%,103%,96.5%,97.3%,95%,97.4%,97.3%,102%,99%,99%,104%,101%,87.5%,93.4%,99.4%,96.3%,97.1%,94%,102%,101%,102%,> 10 µM,> 10 µM,> 10 µM,> 10 µM,> 10 µM
CCCCNc1ncc(-c2ccc(CN3CCOCC3)cn2)c(N[C@H]2CC[C@H](O)CC2)n1 [UNC2250],0,0,0,0,0,108%,102%,109%,97.7%,100%,97.1%,103%,105%,108%,103%,97.9%,98.8%,99.9%,100%,94.8%,102%,102%,94.7%,108%,98.9%,101%,99.6%,94.5%,91.9%,99.1%,> 10 µM,> 10 µM,> 10 µM,> 10 µM,> 10 µM
O=[N+]([O-])c1ccc2nc(COCc3nc4ccc([N+](=O)[O-])cc4[nH]3)[nH]c2c1 [VU591],0,0,0,0,0,94.1%,95.6%,96.3%,96.2%,102%,95.8%,92.2%,103%,84.9%,92.8%,93.2%,93.7%,99.4%,99%,97.3%,94.6%,95.3%,101%,100%,88.7%,93.4%,99.1%,92.2%,94.6%,114%,> 10 µM,> 10 µM,> 10 µM,> 10 µM,> 10 µM
CC(=O)c1ccc2c(c1)N(CCCN1CCN(CCO)CC1)c1ccccc1S2 [acetophenazine],0,0,0,0,0.5,107%,98.9%,91.1%,90.9%,90.4%,88.8%,103%,95.4%,97.2%,97.7%,93.6%,100%,96.1%,98.2%,91.3%,107%,110%,95.3%,108%,88.7%,104%,98.2%,106%,99%,82.6%,> 10 µM,> 10 µM,> 10 µM,> 10 µM,> 10 µM
O=C(c1ccc2nccnc2c1)N1CCCCC1 [ampalex],0,0,0,0,0,103%,99.6%,108%,102%,102%,97.6%,100%,94.5%,103%,101%,98.3%,102%,94.8%,99.7%,102%,97.4%,107%,95.5%,96.6%,100%,96.3%,96.8%,98.8%,93.1%,94%,> 10 µM,> 10 µM,> 10 µM,> 10 µM,> 10 µM
Nc1cc(Cl)c(N=C2NCCN2)c(Cl)c1 [apraclonidine],0,0,0,0,0,96.5%,96.7%,105%,92.3%,96.5%,104%,92.7%,110%,111%,96.6%,96.4%,101%,94.8%,101%,102%,93.6%,100%,106%,106%,98.2%,108%,89.1%,101%,95.2%,98.6%,> 10 µM,> 10 µM,> 10 µM,> 10 µM,> 10 µM
COc1cc(C[C@H]2C(=O)OC[C@@H]2Cc2ccc(OC)c(OC)c2)ccc1O [arctigenin],7.8,2.3,0.4,0,0,93.7%,94.8%,96.6%,77.3%,21%,96.2%,98.9%,94.5%,84.4%,77.1%,101%,101%,98.3%,92%,86%,112%,96.9%,103%,97.9%,89.3%,96%,98.2%,89.8%,100%,95%,1.44 µM,> 10 µM,> 10 µM,> 10 µM,> 10 µM
CC[C@H](C)[C@H](N)C1=N[C@H](C(=O)N[C@@H](CC(C)C)C(=O)N[C@H](CCC(=O)O)C(=O)N[C@H](C(=O)N[C@H]2CCCCNC(=O)[C@H](CC(N)=O)NC(=O)[C@@H](CC(=O)O)NC(=O)[C@H](Cc3cnc[nH]3)NC(=O)[C@@H](Cc3ccccc3)NC(=O)[C@H]([C@@H](C)CC)NC(=O)[C@@H](CCCN)NC2=O)[C@@H](C)CC)CS1 [bacitracin],0,0,0,0,0,100%,99%,99.4%,103%,104%,104%,104%,90.4%,106%,119%,95.8%,96.3%,98.9%,98.9%,102%,103%,96.4%,97.7%,99.5%,97.8%,102%,96.2%,103%,114%,110%,> 10 µM,> 10 µM,> 10 µM,> 10 µM,> 10 µM
